# Laboratory results: PubChem BioAssay AID1963979 (Molecular Pharmacology Branch, DTP, NCI, 2024)
# Values joined by “and” are separate entries in the source; they are usually repeats but may differ in a detail not shown here. Identical values can stand only once.
# System: 361931-004-R-J1-PDC multicell spheroid viability
# Assay: Anticancer human tumor 361931-004-R-J1-PDC patient-derived colon adenocarcinoma cell line growth inhibition [PI3K]
# Settings: for viability, T/C: stronger effect = lower value
# Text: Combinatorial screen of targeted agents with the PI3K inhibitors inavolisib, alpelisib, duvelisib, and copanlisib in multi-cell type tumor spheroids
# A high-throughput screen of multi-cell type tumor spheroids was designed to identify active combinations of targeted small molecules and PI3K pathway inhibitors. Complex spheroids include a stromal component modeled by human endothelial cells (HUVEC) and fibroblasts modeled by human mesenchymal stem cells (MSCs). The concentration ranges selected for each drug and investigational agent were based upon clinically achievable concentrations if the clinical Cmax of the agent was known.
# Compounds. The drugs and investigational agents: inavolisib (NSC800729), alpelisib (NSC765974), duvelisib (NSC772469), copanlisib (NSC816437), ipatasertib (NSC767898), afuresertib (NSC778305), talazoparib (NSC767125), sapanisertib (NSC764658), selumetinib (NSC741078), tovorafenib (DAY101, NSC766906), vemurafenib (NSC761431), ravoxertinib (NSC781343), sotorasib (NSC818433), MRTX1133 (NSC 836407), abemaciclib (NSC 768073), palbociclib (NSC758247), venetoclax (NSC 766270), SY5609 (NSC837396), enzalutamide (NSC755605), and darolutamide (NSC825331), were obtained from the National Cancer Institute (NCI) Developmental Therapeutics Program Chemical Repository. The FDA-approved anticancer drug set is available from the NCI Developmental Therapeutics Program. […] The stock solutions were prepared in dimethyl sulfoxide (DMSO, Sigma-Aldrich, St. Louis, MO, cat. D2650) at 800-fold the tested concentration and stored at -70 degrees C prior to their use. All drugs and investigational agents were tested over a range starting from a high concentration at or near the clinical Cmax and decreasing in half-log increments. If the clinical Cmax for an agent had not been determined, the highest concentration tested was 10 microM.
# Cell Culture. All cells were maintained in an incubator at 37 degrees C and 5% CO2 with 95% humidity. The PDC lines were cultured according to standard operating procedures established by the NCI PDMR (https://pdmr.cancer.gov/sops/default.htm). All PDCs were thawed and cultured in Matrigel-coated flasks prepared with a working solution of 1X Ham's F-12 nutrient mix, without supplementation (Invitrogen, Waltham, MA, cat. 11765054), 100 U/mL penicillin-streptomycin (Invitrogen, cat. 15140122), and 2.5% Matrigel (Corning Inc., Corning, NY, cat. 354248) for the first three passages. The 354836-022-R-J1-PDC, 475296-252-R-J1-PDC, and 997726-040-R-J2-PDC lines were cultured in 6A media, which includes advanced DMEM/F-12 (Thermo Fisher Scientific, cat. 12634028), 10 mM HEPES (Thermo Fisher Scientific, cat. 15630080), 1X GlutaMAX supplement (Thermo Fisher Scientific, cat. 35050061), 0.1 mg/mL primocin (InvivoGen, San Diego, CA, cat. ant-pm-2), 10% defined fetal bovine serum, heat inactivated (HyClone Laboratories Inc., Logan, UT, cat. SH30070.03HI), 50% L-WRN conditioned media (ATCC, cat. CRL-3276), 1.25 mM N-Acetyl-L-cysteine (Sigma-Aldrich, cat. A9165), 10 mM nicotinamide (Sigma-Aldrich, cat. N0636), 1X B-27 supplement (Thermo Fisher Scientific, cat. 17504044), 1X N-2 supplement (Thermo Fisher Scientific, cat. 17502048), and 10 microM Y-27632 dihydrochloride (Tocris Bioscience, Bristol, United Kingdom, cat. 1254). The 624824-186-R-J2-PDC line was cultured in 6C/Colon 1B media, which includes all 6A media components plus 50 ng/mL human EGF recombinant protein (Thermo Fisher Scientific, cat. PHG0311). […]
# [1] = curve of first compound, second compound 0.0316 µM
# [2] = curve of first compound, second compound 0.1 µM
# [3] = curve of first compound, second compound 0.316 µM
# [4] = curve of first compound, second compound 1 µM
# [5] = curve of first compound, second compound 3.16 µM
# [6] = curve of first compound, second compound 10 µM
# [7] = second compound 0.0316 µM, first compound 0.0316 µM
# [8] = second compound 0.0316 µM, first compound 0.1 µM
# [9] = second compound 0.0316 µM, first compound 0.316 µM
# [10] = second compound 0.0316 µM, first compound 1 µM
# [11] = second compound 0.1 µM, first compound 0.0316 µM
# [12] = second compound 0.1 µM, first compound 0.1 µM
# [13] = second compound 0.1 µM, first compound 0.316 µM
# [14] = second compound 0.1 µM, first compound 1 µM
# [15] = second compound 0.316 µM, first compound 0.0316 µM
# [16] = second compound 0.316 µM, first compound 0.1 µM
# [17] = second compound 0.316 µM, first compound 0.316 µM
# [18] = second compound 0.316 µM, first compound 1 µM
# [19] = second compound 1 µM, first compound 0.0316 µM
# [20] = second compound 1 µM, first compound 0.1 µM
# [21] = second compound 1 µM, first compound 0.316 µM
# [22] = second compound 1 µM, first compound 1 µM
# [23] = second compound 3.16 µM, first compound 0.0316 µM
# [24] = second compound 3.16 µM, first compound 0.1 µM
# [25] = second compound 3.16 µM, first compound 0.316 µM
# [26] = second compound 3.16 µM, first compound 1 µM
# [27] = second compound 10 µM, first compound 0.0316 µM
# [28] = second compound 10 µM, first compound 0.1 µM
# [29] = second compound 10 µM, first compound 0.316 µM
# [30] = second compound 10 µM, first compound 1 µM
# [31] = second compound 0.0316 µM, first compound 3.16 µM
# [32] = second compound 0.0316 µM, first compound 10 µM
# [33] = second compound 0.1 µM, first compound 3.16 µM
# [34] = second compound 0.1 µM, first compound 10 µM
# [35] = second compound 0.316 µM, first compound 3.16 µM
# [36] = second compound 0.316 µM, first compound 10 µM
# [37] = second compound 1 µM, first compound 3.16 µM
# [38] = second compound 1 µM, first compound 10 µM
# [39] = second compound 3.16 µM, first compound 3.16 µM
# [40] = second compound 3.16 µM, first compound 10 µM
# [41] = second compound 10 µM, first compound 3.16 µM
# [42] = second compound 10 µM, first compound 10 µM
# 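Also: spheroids exposed to agents for seven days before readout.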
smiles,measurement,setting,value
CCN1CCN(Cc2ccc(Nc3ncc(F)c(-c4cc(F)c5nc(C)n(C(C)C)c5c4)n3)nc2)CC1 + Cc1nc(NC(=O)N2CCCC2C(N)=O)sc1-c1ccnc(C(C)(C)C(F)(F)F)c1,IC50,[1],> 1 µM
same,IC50,[2],> 1 µM
same,IC50,[3],> 1 µM
same,IC50,[4],0.605 µM
same,IC50,[5],0.111 µM
same,IC50,[6],0.0189 µM
same,"viability, T/C","second compound 0.0316 µM, first compound 0.00316 µM",91.8%
same,"viability, T/C","second compound 0.0316 µM, first compound 0.01 µM",99.3%
same,"viability, T/C",[7],99.5%
same,"viability, T/C",[8],93.8%
same,"viability, T/C",[9],79.7%
same,"viability, T/C",[10],82.1%
same,"viability, T/C","second compound 0.1 µM, first compound 0.00316 µM",99.6%
same,"viability, T/C","second compound 0.1 µM, first compound 0.01 µM",97.2%
same,"viability, T/C",[11],96.6%
same,"viability, T/C",[12],82.6%
same,"viability, T/C",[13],81.7%
same,"viability, T/C",[14],57.4%
same,"viability, T/C","second compound 0.316 µM, first compound 0.00316 µM",97.9%
same,"viability, T/C","second compound 0.316 µM, first compound 0.01 µM",90.2%
same,"viability, T/C",[15],83.8%
same,"viability, T/C",[16],72.6%
same,"viability, T/C",[17],69.5%
same,"viability, T/C",[18],56.4%
same,"viability, T/C","second compound 1 µM, first compound 0.00316 µM",95.2%
same,"viability, T/C","second compound 1 µM, first compound 0.01 µM",87.7%
same,"viability, T/C",[19],75.2%
same,"viability, T/C",[20],74.3%
same,"viability, T/C",[21],65.2%
same,"viability, T/C",[22],39.7%
same,"viability, T/C","second compound 3.16 µM, first compound 0.00316 µM",75.4%
same,"viability, T/C","second compound 3.16 µM, first compound 0.01 µM",67.2%
same,"viability, T/C",[23],54.9%
same,"viability, T/C",[24],51.9%
same,"viability, T/C",[25],46%
same,"viability, T/C",[26],37.3%
same,"viability, T/C","second compound 10 µM, first compound 0.00316 µM",65.9%
same,"viability, T/C","second compound 10 µM, first compound 0.01 µM",59%
same,"viability, T/C",[27],40.6%
same,"viability, T/C",[28],40.5%
same,"viability, T/C",[29],32.2%
same,"viability, T/C",[30],30.5%
Cn1cnc2c(F)c(Nc3ccc(Br)cc3Cl)c(C(=O)NOCCO)cc21,"viability, T/C",compound 0.00949 µM,97.8% [middle of 4 runs]
same,"viability, T/C",compound 0.03 µM,92.1% [middle of 4 runs]
same,"viability, T/C",compound 0.0949 µM,90% [middle of 4 runs]
same,"viability, T/C",compound 0.3 µM,86.4% [middle of 4 runs]
same,"viability, T/C",compound 0.949 µM,84% [middle of 4 runs]
same,"viability, T/C",compound 3 µM,62.8% [middle of 4 runs]
same,IC50,curve of compound,2.44 µM and > 3 µM and 2.72 µM
C=CC(=O)N1CCN(c2nc(=O)n(-c3c(C)ccnc3C(C)C)c3nc(-c4c(O)cccc4F)c(F)cc23)C(C)C1 (stereo not drawn) + CC(Nc1ncnc2nc[nH]c12)c1cc2cccc(Cl)c2c(=O)n1-c1ccccc1,IC50,[1],> 10 µM
same,IC50,[2],> 10 µM
same,IC50,[3],> 10 µM
same,IC50,[4],> 10 µM
same,IC50,[5],> 10 µM
same,IC50,[6],> 10 µM
same,"viability, T/C",[7],102%
same,"viability, T/C",[8],102%
same,"viability, T/C",[9],104%
same,"viability, T/C",[10],104%
same,"viability, T/C",[31],102%
same,"viability, T/C",[32],99.3%
same,"viability, T/C",[11],100%
same,"viability, T/C",[12],95.8%
same,"viability, T/C",[13],103%
same,"viability, T/C",[14],111%
same,"viability, T/C",[33],104%
same,"viability, T/C",[34],92.5%
same,"viability, T/C",[15],105%
same,"viability, T/C",[16],108%
same,"viability, T/C",[17],103%
same,"viability, T/C",[18],98.3%
same,"viability, T/C",[35],107%
same,"viability, T/C",[36],86.8%
same,"viability, T/C",[19],98.7%
same,"viability, T/C",[20],109%
same,"viability, T/C",[21],103%
same,"viability, T/C",[22],106%
same,"viability, T/C",[37],102%
same,"viability, T/C",[38],90.5%
same,"viability, T/C",[23],100%
same,"viability, T/C",[24],103%
same,"viability, T/C",[25],99.9%
same,"viability, T/C",[26],104%
same,"viability, T/C",[39],106%
same,"viability, T/C",[40],89.9%
same,"viability, T/C",[27],104%
same,"viability, T/C",[28],108%
same,"viability, T/C",[29],98.2%
same,"viability, T/C",[30],100%
same,"viability, T/C",[41],101%
same,"viability, T/C",[42],93.6%
CCCS(=O)(=O)Nc1ccc(F)c(C(=O)c2c[nH]c3ncc(-c4ccc(Cl)cc4)cc23)c1F + CC(Nc1ncnc2nc[nH]c12)c1cc2cccc(Cl)c2c(=O)n1-c1ccccc1,IC50,[1],5.29 µM
same,IC50,[2],5.19 µM
same,IC50,[3],5.59 µM
same,IC50,[4],5.25 µM
same,IC50,[5],5.52 µM
same,IC50,[6],4.9 µM
same,"viability, T/C",[7],111%
same,"viability, T/C",[8],97.4%
same,"viability, T/C",[9],96.4%
same,"viability, T/C",[10],97.3%
same,"viability, T/C",[31],84.7%
same,"viability, T/C",[32],7.53%
same,"viability, T/C",[11],108%
same,"viability, T/C",[12],101%
same,"viability, T/C",[13],94.3%
same,"viability, T/C",[14],89.2%
same,"viability, T/C",[33],84.9%
same,"viability, T/C",[34],6.96%
same,"viability, T/C",[15],105%
same,"viability, T/C",[16],101%
same,"viability, T/C",[17],96.1%
same,"viability, T/C",[18],90.9%
same,"viability, T/C",[35],92.1%
same,"viability, T/C",[36],6.91%
same,"viability, T/C",[19],100%
same,"viability, T/C",[20],99.7%
same,"viability, T/C",[21],94.9%
same,"viability, T/C",[22],96.8%
same,"viability, T/C",[37],83.5%
same,"viability, T/C",[38],7.4%
same,"viability, T/C",[23],98.8%
same,"viability, T/C",[24],102%
same,"viability, T/C",[25],103%
same,"viability, T/C",[26],95.5%
same,"viability, T/C",[39],90.1%
same,"viability, T/C",[40],7.12%
same,"viability, T/C",[27],99.3%
same,"viability, T/C",[28],101%
same,"viability, T/C",[29],98.1%
same,"viability, T/C",[30],88.3%
same,"viability, T/C",[41],78.1%
same,"viability, T/C",[42],7.3%
